Measurements reported in PubChem BioAssay (NCI).
“And” between values parts separate entries of the source, which are not always exact repeats. Equal values may be shown once.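 1) Cells in 96-well plates. 2) Compound, 48 h, 5 concentrations. 3) Linear interpolation between surrounding doses. 4) Unreached endpoint = highest concentration. The concentration for 50% growth inhibition is given as GI50. The concentration for full growth arrest is given as TGI.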

Key:
Assay in all cases: NCI-60 cell line screen, 48 h
CAKI-1 renal = system: CAKI-1 renal
SN12C renal = system: SN12C renal
IGROV1 ovarian = system: IGROV1 ovarian
A498 renal = system: A498 renal
SW-620 colon = system: SW-620 colon
HCC-2998 colon = system: HCC-2998 colon
NCI-H226 lung = system: NCI-H226 lung
MCF7 breast = system: MCF7 breast
MDA-MB-435 = system: MDA-MB-435

| SMILES | TGI (CAKI-1 renal) | TGI (SN12C renal) | TGI (IGROV1 ovarian) | TGI (A498 renal) | TGI (SW-620 colon) | TGI (HCC-2998 colon) | TGI (NCI-H226 lung) | GI50 (CAKI-1 renal) | GI50 (SN12C renal) | GI50 (IGROV1 ovarian) | GI50 (NCI-H226 lung) | GI50 (A498 renal) | GI50 (SW-620 colon) | GI50 (HCC-2998 colon) | GI50 (MCF7 breast) | TGI (MCF7 breast) | GI50 (MDA-MB-435) | TGI (MDA-MB-435) |
| --- | --- | --- | --- | --- | --- | --- | --- | --- | --- | --- | --- | --- | --- | --- | --- | --- | --- | --- |
| CCOC(=O)N1C/C(=C\c2ccc(N(C)C)cc2)C(=O)/C(=C/c2ccc(N(C)C)cc2)C1 | > 100 µM | > 100 µM | > 100 µM | > 100 µM | > 100 µM | > 100 µM | – | – | – | – | – | – | – | – | – | – | – | – |
| NNC(=O)C(=O)N/N=C1\CCCC1C(=O)CCC(=O)Nc1cccc(Cl)c1 (stereo not drawn) | – | > 100 µM | > 100 µM | – | > 100 µM | > 100 µM | > 100 µM | – | – | – | – | – | – | – | – | – | – | – |
| COC(=O)N1C=CC2=C(C)C3Nc4ccccc4C3C(C)=C2C1 (stereo not drawn) | > 100 µM | – | > 100 µM | > 100 µM | 21.9 µM | 11.9 µM | 5.1 µM | – | – | – | – | – | – | – | – | – | – | – |
| CCCCCCCCCCCCNC(=S)OCCCC | > 100 µM | > 100 µM | > 100 µM | > 100 µM | > 100 µM | > 100 µM | – | – | – | – | – | – | – | – | – | – | – | – |
| NC(=O)c1c(-c2ccccc2)c(-c2ccccc2)cc2c(=O)c3ccccc3[nH]c12 | – | > 100 µM | 74.3 µM | 39.7 µM | > 100 µM | > 100 µM | – | – | – | – | – | – | – | – | – | – | – | – |
| CC[C@@]1(O)C(=O)OCc2c1cc1n(c2=O)Cc2cc3c(N)c(OC)ccc3nc2-1 | 0.796 µM | 0.126 µM | 2.45 µM | 0.726 µM | 2.87 µM | 0.373 µM | > 100 µM | 0.0251 µM | 0.0124 µM | 0.223 µM | 1.77 µM | 0.156 µM | 0.137 µM | 0.155 µM | – | – | – | – |
| O=S(=O)(c1ccccc1)C1(C2(S(=O)(=O)c3ccccc3)CCN=N2)CCN=N1 (stereo not drawn) | > 100 µM | > 100 µM | > 100 µM | – | > 100 µM | > 100 µM | > 100 µM | – | – | – | – | – | – | – | – | – | – | – |
| O=[N+]([O-])C(=C1c2ccccc2-c2ccccc21)[N+](=O)[O-] | > 100 µM | > 100 µM | > 100 µM | > 100 µM | > 100 µM | > 100 µM | > 100 µM | – | – | – | – | – | – | – | – | – | – | – |
| Cc1ccc(C)c(NC(=O)C(=O)C(C2C(C)CC(=O)C2CC(=O)O)[N+](=O)[O-])c1 (stereo not drawn) | > 100 µM | > 100 µM | > 100 µM | > 100 µM | > 100 µM | > 100 µM | > 100 µM | – | – | – | – | – | – | – | – | – | – | – |
| CN1C=C(C(N)=O)Cc2ccsc21 | > 100 µM | > 100 µM | > 100 µM | – | > 100 µM | > 100 µM | > 100 µM | – | – | – | – | – | – | – | – | – | – | – |
| O=S(=O)([O-])c1ccc(C=Nc2ccccc2)c([O-])c1.O=S(=O)([O-])c1ccc(C=Nc2ccccc2)c([O-])c1.[Co+2] | – | > 100 µM | > 100 µM | – | > 100 µM | > 100 µM | > 100 µM | – | 18.8 µM | > 100 µM | 17.7 µM | – | 6.96 µM | > 100 µM | – | – | – | – |
| Nc1ncnc2c1ncn2C1(CO)OC(CO)C(O)C1O (stereo not drawn) | > 100 µM | > 100 µM | – | > 100 µM | > 100 µM | > 100 µM | > 100 µM | – | – | – | – | – | – | – | – | – | – | – |
| CCOC(=O)C(c1ccsc1)P(=O)(OCC)OCC (stereo not drawn) | 27.9 µM | 30.1 µM | – | – | 30.8 µM | 33.8 µM | 35.8 µM | – | – | – | – | – | – | – | – | – | – | – |
| CC(C)CC1CC2C(=O)N(c3ccccc3)C(=O)C2c2[nH]c3ccccc3c21 (stereo not drawn) | 72.7 µM | > 43.8 µM | 61.9 µM | > 51.3 µM | > 100 µM | > 31.6 µM | 66.1 µM | – | – | – | – | – | – | – | – | – | – | – |
| COc1ccc(-c2cc(-c3ccco3)c(C#N)c(=O)n2C2OC(COC(C)=O)C(OC(C)=O)C(OC(C)=O)C2OC(C)=O)cc1 (stereo not drawn) | > 100 µM | > 100 µM and 55.2 µM | > 100 µM and 94.4 µM | > 100 µM and 75.8 µM | > 100 µM | > 100 µM | – | – | > 100 µM and 18.9 µM | > 100 µM and 12.9 µM | – | > 100 µM and 22 µM | – | – | – | – | – | – |
| O=C1C=C(c2ccccc2)NC1(c1ccccc1)c1cc(-c2ccccc2)[nH]c1-c1ccccc1 (stereo not drawn) | > 100 µM | > 100 µM | > 100 µM | > 100 µM | > 100 µM | > 100 µM | – | – | – | – | – | – | – | – | – | – | – | – |
| CCCOC(=O)C1C(c2ccc(OC)cc2)NC(c2ccc(OC)cc2)C(C(=O)OCCC)S1(=O)=O (stereo not drawn) | > 100 µM | > 100 µM | > 100 µM | > 100 µM | > 100 µM | > 100 µM | > 100 µM | > 100 µM | > 100 µM | > 100 µM | > 100 µM | – | > 100 µM | > 100 µM | – | – | – | – |
| CC1=C(C(=O)Nc2cc(F)c(F)cc2F)C(c2ccc(N(C)C)cc2)C(C(=O)Nc2cc(F)c(F)cc2F)=C(C)N1 | > 67.7 µM | > 100 µM | > 100 µM | 80.5 µM | > 100 µM | > 83 µM | > 92.9 µM | – | – | – | – | – | – | – | 16.3 µM | > 100 µM | 41.7 µM | > 100 µM |
| O=C(/C=C/c1cccc(Cl)c1)c1ccccc1 | 11.5 µM | 28.3 µM | 6.41 µM | 21.9 µM | 2.97 µM | 26.7 µM | 29.6 µM | 2.73 µM | 14.6 µM | 2.06 µM | 14.4 µM | 10.2 µM | 1.47 µM | 13 µM | 1.68 µM | 10.3 µM | 2 µM | 5.43 µM |
